According to patent US6638956B2, “Pesticidal 1-arylpyrazoles” (Rhone-Poulenc, Inc., priority 1996, dated 2003):
Where “and” joins values, the source holds several entries; their conditions need not be identical. Equal values may be shown once.

Structure (SMILES)	melting point
CNC(=O)ON=Cc1nn(-c2c(Cl)cc(C(F)(F)F)cc2Cl)c(N)c1[S+](C)[O-] (stereo not drawn)	146 to 147 °C
CCSc1c(C=NO)nn(-c2c(Cl)cc(C(F)(F)F)cc2Cl)c1C [Compound 33, 1-[2,6-Dichloro-4-(trifluoromethyl)phenyl]-4-ethylthio-5-methyl-1H-pyrazole-3-carboxaldehyde oxime]	155 to 157 °C
CSc1c(C=NOC(C)=O)nn(-c2c(Cl)cc(C(F)(F)F)cc2Cl)c1N [Compound 14, 5-Amino-1-[2,6-dichloro-4-(trifluoromethyl)phenyl]-4-methylthio-1H-pyrazole-3-carboxaldehyde O-(acetyl)oxime]	205.5 to 206.5 °C
N=C(NO)c1nn(-c2c(Cl)cc(C(F)(F)F)cc2Cl)c(C=NO)c1SC(F)(F)F [Compound 23, 1-[2,6-Dichloro-4-(trifluoromethyl)phenyl]-N-hydroxy-5-hydroxyiminomethyl-4-trifluoromethylthio-1H-pyrazole-3-carboximidamide]	68 to 72 °C
Cc1ccccc1C(=O)ON=Cc1nn(-c2c(Cl)cc(C(F)(F)F)cc2Cl)c(N)c1[S+](C)[O-] (stereo not drawn) [Compound 11, 5-Amino-1-[2,6-dichloro-4-(trifluoromethyl)phenyl]-4-methylsulfinyl-1H-pyrazole-3-carboxaldehyde O-(2-methylbenzoyl)oxime]	107 to 110 °C
Cc1c([S+](C)[O-])c(C=NO)nn1-c1c(Cl)cc(C(F)(F)F)cc1Cl (stereo not drawn) [Compound 30, 1-[2,6-Dichloro-4-(trifluoromethyl)phenyl]-5-methyl-4-methylsulfinyl-1H-pyrazole-3-carboxaldehyde oxime]	210 to 214 °C
CNc1c([S+](C)[O-])c(C=NO)nn1-c1c(Cl)cc(C(F)(F)F)cc1Cl (stereo not drawn) [Compound 3, 1-[2,6-Dichloro-4-(trifluoromethyl)phenyl]-5-methylamino-4-methylsulfinyl-1H-pyrazole-3-carboxaldehyde oxime]	162 °C
CS(=O)(=O)c1c(C=NO)nn(-c2c(Cl)cc(C(F)(F)F)cc2Cl)c1N [Compound 16, 5-Amino-1-[2,6-dichloro-4-(trifluoromethyl)phenyl]-4-methylsulfonyl-1H-pyrazole-3-carboxaldehyde oxime]	209.5 to 211 °C (dec.)
Nc1c(SC(F)F)c(C=NO)nn1-c1c(Cl)cc(C(F)(F)F)cc1Cl [Compound 7, 5-Amino-1-[2,6-dichloro-4-(trifluoromethyl)phenyl]-4-difluoromethylthio-1H-pyrazole-3-carboxaldehyde oxime]	146 to 152 °C
CON=Cc1nn(-c2c(Cl)cc(C(F)(F)F)cc2Cl)c(N)c1[S+](C)[O-] (stereo not drawn) [Compound 17, 5-Amino-1-[2,6-dichloro-4-(trifluoromethyl)phenyl]-4-methylsulfinyl-1H-pyrazole-3-carboxaldehyde O-(methyl)oxime]	80 °C
C[S+]([O-])c1c(C=NO)nn(-c2c(Cl)cc(OC(F)(F)F)cc2Cl)c1N (stereo not drawn) [Compound 4, 5-Amino-1-[2,6-dichloro-4-(trifluoromethoxy)phenyl]-4-methylsulfinyl-1H-pyrazole-3-carboxaldehyde oxime]	144 to 146 °C
CC(=O)ON=Cc1nn(-c2c(Cl)cc(C(F)(F)F)cc2Cl)c(N)c1[S+](C)[O-] (stereo not drawn) [Compound 10, 5-Amino-1-[2,6-dichloro-4-(trifluoromethyl)phenyl]-4-methylsulfinyl-1H-pyrazole-3-carboxaldehyde O-(acetyl)oxime]	130 to 134 °C
CCOC(=O)C(C)C(=O)ON=Cc1nn(-c2c(Cl)cc(C(F)(F)F)cc2Cl)c(N)c1[S+](C)[O-] (stereo not drawn) [Compound 13, 5-Amino-1-[2,6-dichloro-4-(trifluoromethyl)phenyl]-4-methylsulfinyl-1H-pyrazole-3-carboxaldehyde O-[2-(ethoxycarbonyl)propionyl]oxime]	52 to 54 °C
CSc1c(C=NO)nn(-c2c(Cl)cc(C(F)(F)F)cc2Cl)c1N [Compound 8, 5-Amino-1-[2,6-dichloro-4-(trifluoromethyl)phenyl]-4-methylthio-1H-pyrazole-3-carboxaldehyde oxime]	179 to 181 °C
C[S+]([O-])c1c(C=NO)nn(-c2ncc(C(F)(F)F)cc2Cl)c1N (stereo not drawn) [Compound 32, 5-Amino-1-[3-chloro-5-(trifluoromethyl)-2-pyridinyl]-4-methylsulfinyl-1H-pyrazole-3-carboxaldehyde oxime]	195.5 to 196.5 °C

More lines, now with the values ahead:

melting point	Structure (SMILES)
238 to 239 °C	C[S+]([O-])c1c(C(=N)NO)nn(-c2ccc(C(F)(F)F)cc2Cl)c1N (stereo not drawn) [Compound 68, 5-Amino-1-[2-chloro-4-(trifluoromethyl)phenyl]-4-methylsulfinyl-N-hydroxy-1H-pyrazole-3-carboximidamide]
173 to 175 °C	CC[S+]([O-])CCNc1c([S+]([O-])CC)c(C(=N)NO)nn1-c1c(Cl)cc(C(F)(F)F)cc1Cl (stereo not drawn) [Compound 66, 1-[2,6-Dichloro-4-(trifluoromethyl)phenyl]-4-ethylsulfinyl-5-[2-(ethylsulfinyl)ethylamino]-N-hydroxy-1H-pyrazole-3-carboximidamide]
198 to 200 °C	C[S+]([O-])c1c(C(=N)NO)nn(-c2c(Cl)cc(OC(F)(F)F)cc2Cl)c1N (stereo not drawn) [Compound 45, 5-Amino-1-[2,6-dichloro-4-(trifluoromethoxy)phenyl]-N-hydroxy-4-methylsulfinyl-1H-pyrazole-3-carboximidamide]
108 to 109 °C	CC[S+]([O-])c1c(C(=N)NO)nn(-c2c(Cl)cc(C(F)(F)F)cc2Cl)c1NCC[S+](C)[O-] (stereo not drawn) [Compound 64, 1-[2,6-Dichloro-4-(trifluoromethyl)phenyl]-4-ethylsulfinyl-5-[2-(methylsulfinyl)ethylamino]-N-hydroxy-1H-pyrazole-3-carboximidamide]
191 to 192 °C	CNc1c([S+](C)[O-])c(C(=N)NO)nn1-c1c(Cl)cc(C(F)(F)F)cc1Cl (stereo not drawn) [Compound 55, 1-[2,6-Dichloro-4-(trifluoromethyl)phenyl]-N-hydroxy-5-methylamino-4-methylsulfinyl-1H-pyrazole-3-carboximidamide]
175 to 176 °C	C[S+]([O-])c1c(C(=N)NO)nn(-c2c(Cl)cc(C(F)(F)F)cc2Cl)c1NCCC#N (stereo not drawn) [Compound 58, 5-[2-(Cyano)ethylamino]-1-[2,6-dichloro-4-(trifluoromethyl)phenyl]-N-hydroxy-4-methylsulfinyl-1H-pyrazole-3-carboximidamide]
225 to 227 °C and 225 to 226 °C	C[S+]([O-])c1c(C(=N)NO)nn(-c2c(Cl)cc(C(F)(F)F)cc2Cl)c1N (stereo not drawn) [Compound 44, 5-Amino-1-[2,6-dichloro-4-(trifluoromethyl)phenyl]-N-hydroxy-4-methylsulfinyl-1H-pyrazole-3-carboximidamide]
118 °C	CC(C)C(=O)NNC(=N)c1nn(-c2c(Cl)cc(C(F)(F)F)cc2Cl)c(N)c1[S+](C)[O-] (stereo not drawn) [Compound 70, 5-Amino-1-[2,6-dichloro-4-(trifluoromethyl)phenyl]-4-methylsulfinyl-N-(isopropylcarbonyl)amino-1H-pyrazole-3-carboximidamide]
237 to 238 °C	C[S+]([O-])c1c(C(=N)NO)nn(-c2c(Cl)cc(C(F)(F)F)cc2Br)c1N (stereo not drawn) [Compound 63, 5-Amino-1-[2-bromo-6-chloro-4-(trifluoromethyl)phenyl]-4-methylsulfinyl-N-hydroxy-1H-pyrazole-3-carboximidamide]
170 to 175 °C	CCSc1c(C(=N)NO)nn(-c2c(Cl)cc(C(F)(F)F)cc2Cl)c1N [Compound 43, 5-Amino-1-[2,6-dichloro-4-(trifluoromethyl)phenyl]-N-hydroxy-4-ethylthio-1H-pyrazole-3-carboximidamide]
240 to 241 °C	C[S+]([O-])C1=C(N)N(c2c(Br)cc(C(F)(F)F)cc2Br)N(O)C1C(=N)N (stereo not drawn) [Compound 61, 5-Amino-1-[2,6-dibromo-4-(trifluoromethyl)phenyl]-4-methylsulfinyl-2-N-hydroxy-1H-pyrazole-3-carboximidamide]
178 to 181 °C	CSc1c(C=NO)nn(-c2c(Cl)cc(C(F)(F)F)cc2Cl)c1N(C)C [Compound 36, 1-[2,6-Dichloro-4-(trifluoromethyl)phenyl]-5-dimethylamino-4-methylthio-1H-pyrazole-3-carboxaldehyde oxime]
109 to 111 °C	CS(=O)(=O)c1c(C(=N)NO)nn(-c2c(Cl)cc(C(F)(F)F)cc2Cl)c1N [Compound 46, 5-Amino-1-[2,6-dichloro-4-(trifluoromethyl)phenyl]-N-hydroxy-4-methylsulfonyl-1H-pyrazole-3-carboximidamide]
150 to 151 °C	C[S+]([O-])CCNc1c([S+](C)[O-])c(C(=N)NO)nn1-c1c(Cl)cc(C(F)(F)F)cc1Cl (stereo not drawn) [Compound 65, 1-[2,6-Dichloro-4-(trifluoromethyl)phenyl]-4-methylsulfinyl-5-[2-(methylsulfinyl)ethylamino]-N-hydroxy-1H-pyrazole-3-carboximidamide]
210 °C	C[S+]([O-])c1c(C(=N)NN)nn(-c2c(Cl)cc(C(F)(F)F)cc2Cl)c1N (stereo not drawn) [Compound 69, 5-Amino-1-[2,6-dichloro-4-(trifluoromethyl)phenyl]-4-methylsulfinyl-N-amino-1H-pyrazole-3-carboximidamide]
186 to 189 °C	CC[S+]([O-])c1c(C(=N)NO)nn(-c2c(Cl)cc(C(F)(F)F)cc2Cl)c1N (stereo not drawn) [Compound 42, 5-Amino-1-[2,6-dichloro-4-(trifluoromethyl)phenyl]-N-hydroxy-4-ethylsulfinyl-1H-pyrazole-3-carboximidamide]
192 to 193 °C	CCNc1c([S+](C)[O-])c(C(=N)NO)nn1-c1c(Cl)cc(C(F)(F)F)cc1Cl (stereo not drawn) [Compound 56, 1-[2,6-Dichloro-4-(trifluoromethyl)phenyl]-5-ethylamino-N-hydroxy-4-methylsulfinyl-1H-pyrazole-3-carboximidamide]
109 to 111 °C	CCS(=O)(=O)c1c(C(=N)NO)nn(-c2c(Cl)cc(C(F)(F)F)cc2Cl)c1N [Compound 48, 5-Amino-1-[2,6-dichloro-4-(trifluoromethyl)phenyl]-N-hydroxy-4-ethylsulfonyl-1H-pyrazole-3-carboximidamide]
